Measurements taken from ChEMBL document CHEMBL4715844, “Structure-based virtual screening and biological evaluation of novel non-bisphosphonate farnesyl pyrophosphate synthase inhibitors” (Eur J Med Chem, 2020).

Legend:
[1] = biological target: T1, Farnesyl pyrophosphate synthase (Rattus norvegicus, UniProt P05369); experiment: Binding affinity to rat FPPS expressed in Escherichia coli BL21 (DE3) by isothermal titration calorimetry
T1 sequence (P05369 whole entry): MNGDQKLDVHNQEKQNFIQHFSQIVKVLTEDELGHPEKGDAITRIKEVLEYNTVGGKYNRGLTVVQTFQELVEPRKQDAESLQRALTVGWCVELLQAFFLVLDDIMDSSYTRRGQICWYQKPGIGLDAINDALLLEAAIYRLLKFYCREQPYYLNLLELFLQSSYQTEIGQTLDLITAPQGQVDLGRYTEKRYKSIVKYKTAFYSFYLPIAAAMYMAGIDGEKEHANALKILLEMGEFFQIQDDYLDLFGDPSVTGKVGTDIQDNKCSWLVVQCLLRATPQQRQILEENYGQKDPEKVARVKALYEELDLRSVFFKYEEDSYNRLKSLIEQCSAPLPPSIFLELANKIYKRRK

[2] = biological target: T2, Farnesyl pyrophosphate synthase (Rattus norvegicus) (UniProt P05369); experiment: Inhibition of rat FPPS expressed in Escherichia coli BL21 (DE3) using GPP and IPP as substrate at 10 uM incubated for 10 mins by microplate reader
T2 sequence (whole entry): T1 sequence (P05369 whole entry)

`O=c1oc2cc(O[C@@H]3O[C@H](CO)[C@@H](O)[C@H](O)[C@H]3O)ccc2c2ccccc12` gave a Kd [1] of 106 µM and an inhibition [2] of 11.5%.
With `Cc1c(O[C@@H]2O[C@H](CO)[C@@H](O)[C@H](O)[C@H]2O)ccc2c3c(c(=O)oc12)CCCCC3` the Kd [1] was 53.8 µM and the inhibition [2] was 17.3%.
